The values below come from the OligoGym collection.

In one series the target is KRAS. As to conditions: ASO, A431, 2 µM.
The next series deals with IRF5. To be noted: ASO.

Values joined by “and” are separate entries in the source; they are usually repeats but may differ in a detail not shown here. Identical values can stand only once. After the bases stand the sugars from the 5' end (letter, count) and the backbone: PS all phosphorothioate, else s phosphorothioate and o phosphodiester by linkage. Methylation of C is not given here. [mop] = methoxypropylphosphonate linkage; e = 2'-O-(2-methoxyethyl) (MOE); k = constrained ethyl (cEt); d = 2'-deoxy (DNA); m = 2'-O-methyl

The sequence “ACCAGTGTTAAGAGAA (sugars kkddddddddddkeke, PS)” had a target mRNA inhibition with KRAS of 42%.

In the series with KRAS, “ATGCTGTGAAACTCTC (sugars k3 d9 k3 e1, PS)” registered a target mRNA inhibition of 37%.

In turn, “GATTTGTCAGCAGGAC (sugars kdddddddddkekeke, PS)” showed a target mRNA inhibition with KRAS of 32%.

Turning to TAAAACAAATGCTAAT (sugars k3 d10 k3, PS), the target mRNA inhibition in the series with KRAS came to 5%.

In the series with IRF5 (KARPAS-229, 4 µM), “TCTGGCCCTTTTGGAA (sugars kddddddddddkekek, PS)” registered a target mRNA inhibition of 0%.

Sequence “GCATTCCATATACACA (sugars kkddddddddddkeke, PS)” yielded a target mRNA inhibition in the series with IRF5 (KARPAS-229, 4 µM) of 37%.

For “ACCATTCTATGCCTTT (sugars kkkddddddddkdkdk, PS)”, the target mRNA inhibition with IRF5 (KARPAS-229, 4 µM) worked out at 11%.

In the case of “GTGAGTCTCAAACCAG (sugars kkddddddddkekekk, PS)”, in the series with IRF5 (KARPAS-229, 4 µM), the target mRNA inhibition is 9%.

Take “GAGTCATGGGCTGAGG (sugars kkdddddddddkekek, PS)”: the target mRNA inhibition with IRF5 (KARPAS-229, 4 µM) was determined as 15%.

As to “CCCAATGCAACATCCA (sugars kddddddddddkekek, PS)”, in the series with IRF5 (KARPAS-229, 4 µM), the target mRNA inhibition was determined as 0%.

As for “CGGTCTTTGAGGTCTG (sugars kkddddddddkekekk, PS)”, the target mRNA inhibition with IRF5 (KARPAS-229, 4 µM) worked out at 33%.

“CCTTCTGCAGGGAGTC (sugars kkddddddddkekekk, PS)” displayed a target mRNA inhibition with IRF5 (KARPAS-229, 4 µM) of 0%.

In the series with IRF5 (KARPAS-229, 4 µM), GACTGTATTACCTATA (sugars k3 d10 k3, PS) yielded a target mRNA inhibition of 41%.

With “GTGAGTCTCAAACCAG (sugars kddddddddddkekek, PS)”, in the series with IRF5 (KARPAS-229, 4 µM), the target mRNA inhibition was 0%.

With GAATTTTGTGACTGTA (sugars k3 d10 k3, PS), the target mRNA inhibition was 41% with IRF5 (KARPAS-229, 0.44444 µM); 66% in the series with IRF5 (KARPAS-229, 1.33333 µM); 57% and 67% in the series with IRF5 (KARPAS-229, 4 µM); 78% in the series with IRF5 (KARPAS-229, 12 µM).

As for GTCATGGAATTTTGTG (sugars k3 d10 k3, PS), the target mRNA inhibition with IRF5 (KARPAS-229, 4 µM) was determined as 54%.

With “GGTCTTTGAGGTCTGG (sugars kkkddddddddkekek, PS)”, in the series with IRF5 (KARPAS-229, 4 µM), the target mRNA inhibition was determined as 46%.

ATGCAACATCCATCAA (sugars k3 d10 k3, PS): in the series with IRF5 (KARPAS-229, 4 µM), the target mRNA inhibition turned out to be 0%.

Turning to “TGTCTAGTGTCATGGA (sugars k2 d9 e3 k2, PS)”, the target mRNA inhibition in the series with IRF5 (A-431, 0.00412 µM) was 0% and 4%; with IRF5 (A-431, 0.01225 µM), 0% and 2%; in the series with IRF5 (A-431, 0.03704 µM), 24% and 28%; with IRF5 (A-431, 0.11111 µM) it was 44%; in the series with IRF5 (A-431, 0.33333 µM) it was 59% and 60%; with IRF5 (A-431, 1 µM), 69% and 74%. The target mRNA inhibition with IRF5 (KARPAS-229, 0.44444 µM) is 33%; with IRF5 (KARPAS-229, 1.33333 µM), 50%; with IRF5 (KARPAS-229, 4 µM), 60% and 57%; in the series with IRF5 (KARPAS-229, 12 µM) it was 70%.

As to “CACATCTCCACATCAG (sugars kkkddddddddkekek, PS)”, the target mRNA inhibition with IRF5 (KARPAS-229, 4 µM) amounted to 43%.

The sequence “AGCTTGGTCTTGACCT (sugars k3 d9 k3 e1, PS)” yielded a target mRNA inhibition with IRF5 (KARPAS-229, 4 µM) of 10%.

The sequence TAAACCATTCTATGCC (sugars k3 d10 k3, PS) gave a target mRNA inhibition with IRF5 (KARPAS-229, 4 µM) of 9%.

As for “CTGAUATGATACCTAA (sugars k3 d1 m1 d8 k3, PS)”, the target mRNA inhibition in the series with IRF5 (A-431, 0.00412 µM) came out at 6%; with IRF5 (A-431, 0.01225 µM), 23%; with IRF5 (A-431, 0.03704 µM), 41%; with IRF5 (A-431, 0.11111 µM), 64%; with IRF5 (A-431, 0.33333 µM) it was 82%; in the series with IRF5 (A-431, 1 µM) it was 82%.

Regarding “CCCAATGCAACATCCA (sugars kekdddddddddeekk, PS)”, the target mRNA inhibition with IRF5 (KARPAS-229, 4 µM) was 0%.

With GGAAGTGAGTCTCAAA (sugars k3 d10 k3, PS), the target mRNA inhibition is 27% with IRF5 (KARPAS-229, 0.44444 µM); 39% in the series with IRF5 (KARPAS-229, 1.33333 µM); 51% and 68% in the series with IRF5 (KARPAS-229, 4 µM); 79% in the series with IRF5 (KARPAS-229, 12 µM).

“GATGGTGTTATCTCCG (sugars k2 d9 e3 k2, PS)” yielded a target mRNA inhibition with IRF5 (KARPAS-229, 4 µM) of 0%.

In the series with IRF5 (KARPAS-229, 4 µM), “GTTATCTCCGTCCTGG (sugars kdddddddddkekeke, PS)” yielded a target mRNA inhibition of 0%.

As to “GTTATCTCCGTTCCTGG (sugars kkkddddddddkdkdkd, PS)”, in the series with IRF5 (KARPAS-229, 4 µM), the target mRNA inhibition was found to be 27%.

With “CGGTCTTTGAGGTCTG (sugars kkddddddddddkeke, PS)”, the target mRNA inhibition in the series with IRF5 (KARPAS-229, 0.44444 µM) is 31%; in the series with IRF5 (KARPAS-229, 1.33333 µM), 29%; with IRF5 (KARPAS-229, 4 µM), 43% and 46%; with IRF5 (KARPAS-229, 12 µM) it was 57%.

“TTGTCTAGTGTCATGG (sugars kkddddddddkekekk, PS)” yielded a target mRNA inhibition with IRF5 (KARPAS-229, 4 µM) of 0%.

Consider “ACATCTCCACATCAGT (sugars kkdddddddddkekek, PS)”, for which the target mRNA inhibition with IRF5 (KARPAS-229, 4 µM) is 16%.

In the case of “TGAGTCTCAAACCAGG (sugars kkdddddddddkekek, PS)”, the target mRNA inhibition in the series with IRF5 (KARPAS-229, 4 µM) turned out to be 0%.

In the series with IRF5 (KARPAS-229, 4 µM), “AGGTTCTTGGACTCTC (sugars kkdddddddddkdkdk, PS)” showed a target mRNA inhibition of 36%.

With “CAATGCAACATCCATC (sugars kddddddddddkekek, PS)”, the target mRNA inhibition with IRF5 (KARPAS-229, 4 µM) came to 0%.

Regarding “AAGGGCACAGACGCAGG (sugars k3 d10 k3 d1, PS)”, the target mRNA inhibition with IRF5 (KARPAS-229, 4 µM) was found to be 0%.

As for “AGGTTCTTGGACTCTC (sugars kkkddddddddkekek, PS)”, the target mRNA inhibition with IRF5 (KARPAS-229, 4 µM) is 8%.

Consider “CTGATATGATACCTAA (sugars k3 d2 m1 d7 k3, PS)”, for which the target mRNA inhibition in the series with IRF5 (A-431, 0.00412 µM) was determined as 1%; in the series with IRF5 (A-431, 0.01225 µM), 14%; with IRF5 (A-431, 0.03704 µM), 31%; with IRF5 (A-431, 0.11111 µM), 56%; with IRF5 (A-431, 0.33333 µM) it was 74%; with IRF5 (A-431, 1 µM) it was 79%.

For TGACTGTATTACCTAT (sugars k3 d10 k3, PS), the target mRNA inhibition in the series with IRF5 (KARPAS-229, 4 µM) was determined as 18%.

For the sequence “CTGATATGATACCTAA (sugars k3 d10 k3, linkages s4 [mop]1 s10)”, the target mRNA inhibition with IRF5 (A-431, 0.00412 µM) turned out to be 11%; with IRF5 (A-431, 0.01225 µM) it was 22%; with IRF5 (A-431, 0.03704 µM), 29%; with IRF5 (A-431, 0.11111 µM) it was 56%; with IRF5 (A-431, 0.33333 µM), 76%; with IRF5 (A-431, 1 µM) it was 78%.

“GTGTATTTCCCTGTCT (sugars kkdddddddddkekek, PS)”: the target mRNA inhibition with IRF5 (KARPAS-229, 4 µM) was 0%.

Take “GGTTCTTGGACTCTCA (sugars kkkddddddddkekek, PS)”: in the series with IRF5 (KARPAS-229, 4 µM), the target mRNA inhibition is 25%.

As to “TGTCTAGTGTCATGGA (sugars k2 d9 e3 k2, linkages s4 [mop]1 s10)”, the target mRNA inhibition in the series with IRF5 (A-431, 0.00412 µM) is 2%; in the series with IRF5 (A-431, 0.01225 µM), 11%; with IRF5 (A-431, 0.03704 µM), 4%; with IRF5 (A-431, 0.11111 µM), 8%; in the series with IRF5 (A-431, 0.33333 µM) it was 18%; in the series with IRF5 (A-431, 1 µM), 32%.

Regarding “TTATTTCTGCTCCAGG (sugars kdddddddddkekeke, PS)”, the target mRNA inhibition with IRF5 (KARPAS-229, 4 µM) amounted to 0%.

For “CACCACTGTGTACCCC (sugars kddddddddddkekek, PS)”, the target mRNA inhibition in the series with IRF5 (KARPAS-229, 4 µM) amounted to 0%.

As to “GGAAGTGAGTCTCAAA (sugars k2 d8 e4 k2, PS)”, in the series with IRF5 (KARPAS-229, 4 µM), the target mRNA inhibition worked out at 34%.

In turn, “TCCAATTTTGCATTCC (sugars kkdddddddddkekek, PS)” had a target mRNA inhibition with IRF5 (KARPAS-229, 4 µM) of 29%.

For the sequence AGGTTCTTGGACTCTC (sugars k3 d10 k3, PS), in the series with IRF5 (KARPAS-229, 4 µM), the target mRNA inhibition is 0%.

In the series with IRF5 (KARPAS-229, 4 µM), “AGATGGTGTTATCTCC (sugars kkkddddddddkdkdk, PS)” yielded a target mRNA inhibition of 0%.

In the case of “CACTGACACAGGCGGA (sugars kkkdddddddddkeke, PS)”, the target mRNA inhibition in the series with IRF5 (KARPAS-229, 4 µM) was determined as 0%.

For the sequence “TGTCTAGTGTCATGGA (sugars kkdddddddddkekek, PS)”, the target mRNA inhibition in the series with IRF5 (KARPAS-229, 4 µM) was 44%.
